Among the data in patent US20250179061A1 (SIRONAX LTD., priority 2022, published 2025) are IC50 values, retold here.

Like-named read-outs stand apart in the source and are kept apart here.

The subject of this assay is HT-29 cells. The assay is described as follows: HT-29 necroptosis cell viability assay (TNF-α/SMAC mimetic/zVAD-FMK, CellTiter-Glo). Format: cell-based. In a few lines:
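HT-29 cells (~5,000/well, overnight) in FBS-free McCoy's 5A with TNF-α 10 ng/ml, SMAC mimetic 6 μM and zVAD-FMK 10 μM plus 10-point 1:3 compound titration, 20 h at 37°C. ATP measured by CellTiter-Glo luminescence; IC50 as geometric mean of duplicates.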

Where [1] appears, read: Homo sapiens, HT-29, HT-29 necroptosis cell viability, IC50 class symbols, read-out: Activity.
Setting [2] is: Homo sapiens, HT-29, HT-29 necroptosis cell viability assay, class symbols for IC50, read-out: Activity.
Setting [3] is: Homo sapiens, HT-29, HT-29 cells, necroptosis induced by TNF-α/SMAC mimetic/zVAD-FMK, CellTiter-Glo, read-out: Activity (IC50 class).
Where [4] appears, read: Homo sapiens, HT-29 cells stimulated with TNF-α (10 ng/ml), SMAC mimetic (6 μM) and zVAD-FMK (10 μM), 20 hours, CellTiter-Glo ATP luminescence, geometric mean IC50 from 10 points, read-out: Activity.

`Cc1cnc(N2CC(C)(C#N)C2)nc1Oc1ccc(-n2ncn(Cc3c(F)cccc3F)c2=O)cc1F` [Example 225, 1-[4-(4-{4-[(2,6-difluorophenyl)methyl]-5-oxo-1,2,4-triazol-1-yl}-2-fluorophenoxy)-5-methylpyrimidin-2-yl]-3-methylazetidine-3-carbonitrile]: the IC50 under setting [1] was in the range of 0.1 to 1 µM.

Consider `O=c1n(Cc2c(F)cccc2F)cnn1-c1ccc(Oc2ccnc(NCC3COC3)c2)cc1` [Example 341, 4-(2,6-difluorobenzyl)-2-(4-((2-((oxetan-3-ylmethyl)amino)pyridin-4-yl)oxy)phenyl)-2,4-dihydro-3H-1,2,4-triazol-3-one], for which, under setting [1], the IC50 lay in the range of 1 to 10 µM. On the same count and under the same terms, for `CC1(C#N)CN(c2nccc(Oc3ccc(-n4ncn(Cc5c(F)cccc5F)c4=O)cc3F)c2F)C1` [Example 226, 1-(4-(4-(4-(2,6-difluorobenzyl)-5-oxo-4,5-dihydro-1H-1,2,4-triazol-1-yl)-2-fluorophenoxy)-3-fluoropyridin-2-yl)-3-methylazetidine-3-carbonitrile] the value was < 0.1 µM; for `Cc1c(Oc2ccc(-n3ncn(Cc4c(F)cccc4F)c3=O)cc2F)ccnc1NC12CC(C#N)(C1)C2` [Example 271, 3-((4-(4-(4-(2,6-difluorobenzyl)-5-oxo-4,5-dihydro-1H-1,2,4-triazol-1-yl)-2-fluorophenoxy)-3-methylpyridin-2-yl)amino)bicyclo[1.1.1]pentane-1-carbonitrile], < 0.1 µM; for `CC(C)OC1CN(c2cccc(Oc3ccc(-n4ncn(Cc5c(F)cccc5F)c4=O)cc3)n2)C1` [Example 253, 4-(2,6-difluorobenzyl)-2-(4-((6-(3-isopropoxyazetidin-1-yl)pyridin-2-yl)oxy)phenyl)-2,4-dihydro-3H-1,2,4-triazol-3-one], < 0.1 µM. `N#CC12CC(Nc3nccc(Oc4ccc(-n5ncn(Cc6c(F)cccc6F)c5=O)cc4Cl)c3Cl)(C1)C2` [Example 313, 3-((3-chloro-4-(2-chloro-4-(4-(2,6-difluorobenzyl)-5-oxo-4,5-dihydro-1H-1,2,4-triazol-1-yl)phenoxy)pyridin-2-yl)amino)bicyclo[1.1.1]pentane-1-carbonitrile]: the IC50 under setting [1] was in the range of 0.1 to 1 µM. On to `Cc1nc(C(=O)NC2CCOCC2)sc1Oc1ccc(-n2nc3n(c2=O)[C@H](c2ccccc2)CC3)cc1F` (single isomer, unassigned) [Example 602], for which, under setting [2], the IC50 was < 0.1 µM. As for `N#CC1CC(Oc2ncccc2Cc2ccc(-n3ncn(Cc4c(F)cccc4F)c3=O)cc2)C1` (stereo not drawn) [Example 684, 3-((3-(4-(4-(2,6-difluorobenzyl)-5-oxo-4,5-dihydro-1H-1,2,4-triazol-1-yl)benzyl)pyridin-2-yl)oxy)cyclobutane-1-carbonitrile], the IC50 under setting [3] was 0.1 to 1 µM. Turning to `O=c1n(Cc2c(F)cccc2F)cnn1-c1ccc(Oc2ccnc(N3CC4(CCN4)C3)c2)cc1` [Example 315, 2-(4-((2-(1,6-diazaspiro[3.3]heptan-6-yl)pyridin-4-yl)oxy)phenyl)-4-(2,6-difluorobenzyl)-2,4-dihydro-3H-1,2,4-triazol-3-one], the IC50 under setting [1] is < 0.1 µM. For `CC(C)(O)C#Cc1cc(Oc2ccc(-n3ncn(Cc4c(F)cccc4F)c3=O)cc2)ccn1` [Example 535, 4-(2,6-difluorobenzyl)-2-(4-((2-(3-hydroxy-3-methylbut-1-yn-1-yl)pyridin-4-yl)oxy)phenyl)-2,4-dihydro-3H-1,2,4-triazol-3-one], the IC50 under setting [2] is 0.1 to 1 µM. Still for that read-out and setting: to `Cn1cc(C#N)nc1Oc1ccc(-n2ncn(Cc3c(F)cccc3F)c2=O)cc1F` [Example 121, 2-(4-(4-(2,6-difluorobenzyl)-5-oxo-4,5-dihydro-1H-1,2,4-triazol-1-yl)-2-fluorophenoxy)-1-methyl-1H-imidazole-4-carbonitrile] belongs 0.1 to 1 µM. For `Cc1nc(C2CC(C(N)=O)C2)sc1Oc1ccc(-n2ncn(Cc3c(F)cccc3F)c2=O)cc1F` (stereo not drawn) [Example 167, 3-(5-(4-(4-(2,6-difluorobenzyl)-5-oxo-4,5-dihydro-1H-1,2,4-triazol-1-yl)-2-fluorophenoxy)-4-methylthiazol-2-yl)cyclobutane-1-carboxamide], under “HT-29 necroptosis cell viability assay, class symbols for IC50, read-out: Activity”, the IC50 was < 0.1 µM.

Regarding `Cc1nc(N2C[C@@H](C#N)[C@@H]2C)sc1Oc1ccc(-n2ncn(Cc3c(F)cccc3F)c2=O)cc1` [Example 43, (2S,3R)-1-(5-(4-(4-(2,6-difluorobenzyl)-5-oxo-4,5-dihydro-1H-1,2,4-triazol-1-yl)phenoxy)-4-methylthiazol-2-yl)-2-methylazetidine-3-carbonitrile], the IC50 under setting [4] was < 0.1 µM. On to `Cc1c(C(N)=O)noc1Oc1ccc(-n2ncn(Cc3c(F)cccc3F)c2=O)cc1F` [Example 476, 5-(4-(4-(2,6-difluorobenzyl)-5-oxo-4,5-dihydro-1H-1,2,4-triazol-1-yl)-2-fluorophenoxy)-4-methylisoxazole-3-carboxamide], for which the IC50 under setting [1] was < 0.1 µM. Turning to `Cc1cnc(NC23CC(C#N)(C2)C3)cc1Oc1ccc(-n2ncn(Cc3c(F)cccc3F)c2=O)cc1Cl` [Example 267, 3-((4-(2-chloro-4-(4-(2,6-difluorobenzyl)-5-oxo-4,5-dihydro-1H-1,2,4-triazol-1-yl)phenoxy)-5-methylpyridin-2-yl)amino)bicyclo[1.1.1]pentane-1-carbonitrile], the IC50 under setting [1] is < 0.1 µM.

Regarding `CCOC(=O)c1noc(Oc2ccc(-n3ncn(Cc4c(F)cccc4F)c3=O)cc2F)c1C` [Example 477, ethyl 5-(4-(4-(2,6-difluorobenzyl)-5-oxo-4,5-dihydro-1H-1,2,4-triazol-1-yl)-2-fluorophenoxy)-4-methylisoxazole-3-carboxylate], the IC50 under setting [1] lay within 0.1 to 1 µM. As for `Cc1nc(N2CC(C)(C#N)C2)sc1Oc1ccc(-n2ncn(Cc3c(F)cccc3F)c2=O)cc1` [Example 46, 1-(5-(4-(4-(2,6-difluorobenzyl)-5-oxo-4,5-dihydro-1H-1,2,4-triazol-1-yl)phenoxy)-4-methylthiazol-2-yl)-3-methylazetidine-3-carbonitrile], under setting [4], the IC50 was < 0.1 µM. In the case of `Cc1nc(C2=CCOC2)sc1Oc1ccc(-n2ncn(Cc3c(F)cccc3F)c2=O)cc1` [Example 632, 4-(2,6-difluorobenzyl)-2-(4-((2-(2,5-dihydrofuran-3-yl)-4-methylthiazol-5-yl)oxy)phenyl)-2,4-dihydro-3H-1,2,4-triazol-3-one], the IC50 under setting [3] was < 0.1 µM. Regarding `Cc1nc(C(=O)N2CC3(COC3)C2)sc1Oc1ccc(-n2ncn(Cc3ccccc3F)c2=O)cc1F` [Example 605, 2-(3-fluoro-4-((4-methyl-2-(2-oxa-6-azaspiro[3.3]heptane-6-carbonyl)thiazol-5-yl)oxy)phenyl)-4-(2-fluorobenzyl)-2,4-dihydro-3H-1,2,4-triazol-3-one], under setting [2], the IC50 is < 0.1 µM.

Consider `CC1(N)CN(c2cc(Oc3ccc(-n4ncn(Cc5c(F)cccc5F)c4=O)cc3F)c(Cl)cn2)C1` [Example 421, 2-(4-((2-(3-amino-3-methylazetidin-1-yl)-5-chloropyridin-4-yl)oxy)-3-fluorophenyl)-4-(2,6-difluorobenzyl)-2,4-dihydro-3H-1,2,4-triazol-3-one], for which the IC50 under setting [1] is < 0.1 µM. Turning to `COC(=O)c1nc(C)sc1Oc1ccc(-n2ncn(Cc3c(F)cccc3F)c2=O)cc1F` [Example 127, methyl 5-(4-(4-(2,6-difluorobenzyl)-5-oxo-4,5-dihydro-1H-1,2,4-triazol-1-yl)-2-fluorophenoxy)-2-methylthiazole-4-carboxylate], under setting [2], the IC50 was < 0.1 µM.
